Experimental data taken from patent publication US20110200626A1, “IQGAP3 EPITOPE PEPTIDES AND VACCINES CONTAINING THE SAME” (Oncotherapy Science, Inc., priority 2008, published 2011).
“Also recorded” adds a separate entry of the source. Ends that are not written are not given here.

Experiments:
Type in all cases: cell-based, human
[1] = tested on: peptide-pulsed A24LCL cells; assay: IFN-gamma ELISPOT assay on CTLs induced with HLA-A*2402 restricted peptides; settings: against peptide-pulsed target cells compared with control without peptide
[2] = tested on: peptide-pulsed A24LCL cells; assay: IFN-gamma ELISA assay on CTL lines (HLA-A*2402); settings: target cells pulsed with corresponding peptide vs without peptide
peptide-pulsed T2 cells [3] = assay: IFN-gamma ELISPOT assay on CTLs induced with HLA-A*0201 restricted peptides; settings: against peptide-pulsed target cells compared with control without peptide
peptide-pulsed T2 cells [4] = assay: IFN-gamma ELISA assay on CTL lines (HLA-A*0201); settings: target cells pulsed with corresponding peptide vs without peptide
peptide-pulsed T2 cells [5] = assay: IFN-gamma ELISA assay on CTL clones established by limiting dilution (HLA-A*0201); settings: peptide-pulsed target cells, listed as IQGAP3-A02-10-903
Experimental: The dilutions were made to have 0.3, 1, and 3 CTLs/well in 96 round-bottomed micro titer plate (Nalge Nunc International). CTLs were cultured with 1×10^4 cells/well of 2 kinds of human B-lymphoblastoid cell lines, 30 ng/ml of anti-CD3 antibody, and 125 U/ml of IL-2 in a total of 150 and/well of AIM-VMedium containing 5% AS. 50 mcl/well of IL-2 were added to the medium 10 days later so to reach a final concentration of 125 U/ml IL-2. CTL activity was tested on the 14th day, and CTL clones were expanded using the same method as described above (Uchida N et al., Clin Cancer Res 2004 Dec. 15, 10(24): 8577-86; Suda T et al., Cancer Sci 2006 May, 97(5): 411-9; Watanabe T et al., Cancer Sci 2005 August, 96(8): 498-506).
Specifically, peptide-pulsed A24 or T2 LCL (1×10^4/well) was prepared as stimulator cells. Cultured cells in 48 wells were used as responder cells. IFN-gamma ELISPOT assay and IFN-gamma ELISA assay were performed under manufacture procedure.

AYQHLFYLL [SEQ ID NO: 2]
IFN-gamma production of peptide-induced CTLs (ELISPOT) ([1]; listed as IQGAP3-A24-9-955): potent IFN-gamma production ability
IFN-gamma production of established CTL lines (ELISA) [2]: potent IFN-gamma production

VYCIHALSLF [SEQ ID NO: 40]
IFN-gamma production of peptide-induced CTLs (ELISPOT) ([1]; listed as IQGAP3-A24-10-139): potent IFN-gamma production ability
IFN-gamma production of established CTL lines (ELISA) [2]: potent IFN-gamma production

YYSQYIRACL [SEQ ID NO: 37]
IFN-gamma production of peptide-induced CTLs (ELISPOT) ([1]; listed as IQGAP3-A24-10-1507): potent IFN-gamma production ability
IFN-gamma production of established CTL lines (ELISA) [2]: potent IFN-gamma production

MYQLELAVL [SEQ ID NO: 6]
IFN-gamma production of peptide-induced CTLs (ELISPOT) ([1]; listed as IQGAP3-A24-9-417): typical negative data of CTL response; also recorded: no specific IFN-gamma production
IFN-gamma production of established CTL lines (ELISA) [2]: no specific IFN-gamma production
IFN-gamma production of established CTL lines (ELISA) ([2]; listed as IQGAP3-A24-9-417): typical negative data of CTL response

RQNVAYQYL [SEQ ID NO: 25]
IFN-gamma production of peptide-induced CTLs (ELISPOT) ([1]; listed as IQGAP3-A24-9-26): potent IFN-gamma production ability
IFN-gamma production of established CTL lines (ELISA) [2]: potent IFN-gamma production

RLDIALRNLL [SEQ ID NO: 63]
IFN-gamma production of peptide-induced CTLs (ELISPOT) ([1]; listed as IQGAP3-A24-10-1114): potent IFN-gamma production ability
IFN-gamma production of established CTL lines (ELISA) [2]: potent IFN-gamma production

KLGHcFAPSV (KLGHCFAPSV; not fully specified (residue 5); printed as KLGHcFAPSV) [SEQ ID NO: 114]
IFN-gamma production of peptide-induced CTLs (ELISPOT) (peptide-pulsed T2 cells [3]; listed as IQGAP3-A02-10-70): potent IFN-gamma production ability
IFN-gamma production of established CTL lines (ELISA) (peptide-pulsed T2 cells [4]): potent IFN-gamma production

KALQDPALAL [SEQ ID NO: 57]
IFN-gamma production of peptide-induced CTLs (ELISPOT) ([1]; listed as IQGAP3-A24-10-314): potent IFN-gamma production ability
IFN-gamma production of established CTL lines (ELISA) [2]: potent IFN-gamma production

FLAEaELLKL (FLAEAELLKL; not fully specified (residue 5); printed as FLAEaELLKL) [SEQ ID NO: 113]
IFN-gamma production of peptide-induced CTLs (ELISPOT) (peptide-pulsed T2 cells [3]): no specific IFN-gamma production

QLHYqDLLQL (QLHYQDLLQL; not fully specified (residue 5); printed as QLHYqDLLQL) [SEQ ID NO: 140]
IFN-gamma production of peptide-induced CTLs (ELISPOT) (peptide-pulsed T2 cells [3]; listed as IQGAP3-A02-10-1590): potent IFN-gamma production ability
IFN-gamma production of established CTL lines (ELISA) (peptide-pulsed T2 cells [4]): potent IFN-gamma production

RVVYCIHAL [SEQ ID NO: 29]
IFN-gamma production of peptide-induced CTLs (ELISPOT) ([1]; listed as IQGAP3-A24-9-137): potent IFN-gamma production ability
IFN-gamma production of established CTL lines (ELISA) [2]: potent IFN-gamma production

GLLVkNRITL (GLLVKNRITL; not fully specified (residue 5); printed as GLLVkNRITL) [SEQ ID NO: 130]
IFN-gamma production of peptide-induced CTLs (ELISPOT) (peptide-pulsed T2 cells [3]; listed as IQGAP3-A02-10-903): potent IFN-gamma production ability
IFN-gamma production of established CTL lines (ELISA) (peptide-pulsed T2 cells [4]): potent IFN-gamma production
IFN-gamma production of CTL clones (ELISA) (peptide-pulsed T2 cells [5]): potent IFN-gamma production

KVNVNLLIFL [SEQ ID NO: 55]
IFN-gamma production of peptide-induced CTLs (ELISPOT) ([1]; listed as IQGAP3-A24-10-1614): potent IFN-gamma production ability
IFN-gamma production of established CTL lines (ELISA) [2]: potent IFN-gamma production

CFAPSVVPL [SEQ ID NO: 21]
IFN-gamma production of peptide-induced CTLs (ELISPOT) ([1]; listed as IQGAP3-A24-9-74): potent IFN-gamma production ability
IFN-gamma production of established CTL lines (ELISA) [2]: potent IFN-gamma production

LEAYqHLFYL (LEAYQHLFYL; not fully specified (residue 5); printed as LEAYqHLFYL) [SEQ ID NO: 139]
IFN-gamma production of peptide-induced CTLs (ELISPOT) (peptide-pulsed T2 cells [3]; listed as IQGAP3-A02-10-953): potent IFN-gamma production ability
IFN-gamma production of established CTL lines (ELISA) (peptide-pulsed T2 cells [4]): potent IFN-gamma production

KAQELGLVEL [SEQ ID NO: 53]
IFN-gamma production of peptide-induced CTLs (ELISPOT) ([1]; listed as IQGAP3-A24-10-345): potent IFN-gamma production ability
IFN-gamma production of established CTL lines (ELISA) [2]: potent IFN-gamma production

RNGVLLAKL [SEQ ID NO: 32]
IFN-gamma production of peptide-induced CTLs (ELISPOT) ([1]; listed as IQGAP3-A24-9-63): potent IFN-gamma production ability
IFN-gamma production of established CTL lines (ELISA) [2]: potent IFN-gamma production

YLLQtQPIYL (YLLQTQPIYL; not fully specified (residue 5); printed as YLLQtQPIYL) [SEQ ID NO: 111]
IFN-gamma production of peptide-induced CTLs (ELISPOT) (peptide-pulsed T2 cells [3]; listed as IQGAP3-A02-10-961): potent IFN-gamma production ability
IFN-gamma production of established CTL lines (ELISA) (peptide-pulsed T2 cells [4]): potent IFN-gamma production

SMYQlELAVL (SMYQLELAVL; not fully specified (residue 5); printed as SMYQlELAVL) [SEQ ID NO: 142]
IFN-gamma production of peptide-induced CTLs (ELISPOT) (peptide-pulsed T2 cells [3]; listed as IQGAP3-A02-10-416): potent IFN-gamma production ability
IFN-gamma production of established CTL lines (ELISA) (peptide-pulsed T2 cells [4]): potent IFN-gamma production

FLRTWLPAV [SEQ ID NO: 101]
IFN-gamma production of peptide-induced CTLs (ELISPOT) (peptide-pulsed T2 cells [3]; listed as IQGAP3-A02-9-756): potent IFN-gamma production ability
IFN-gamma production of established CTL lines (ELISA) (peptide-pulsed T2 cells [4]): potent IFN-gamma production

VYKVVGNLL [SEQ ID NO: 4]
IFN-gamma production of peptide-induced CTLs (ELISPOT) ([1]; listed as IQGAP3-A24-9-1167): potent IFN-gamma production ability
IFN-gamma production of established CTL lines (ELISA) [2]: potent IFN-gamma production

HALGAVAQLL [SEQ ID NO: 67]
IFN-gamma production of peptide-induced CTLs (ELISPOT) ([1]; listed as IQGAP3-A24-10-1207): potent IFN-gamma production ability
IFN-gamma production of established CTL lines (ELISA) [2]: potent IFN-gamma production

PYDVTPEQAL [SEQ ID NO: 49]
IFN-gamma production of peptide-induced CTLs (ELISPOT) ([1]; listed as IQGAP3-A24-10-1097): potent IFN-gamma production ability
IFN-gamma production of established CTL lines (ELISA) [2]: potent IFN-gamma production

IMDkIGLLV [SEQ ID NO: 150]
IFN-gamma production of peptide-induced CTLs (ELISPOT) (peptide-pulsed T2 cells [3]; listed as IQGAP3-A02-10-897): potent IFN-gamma production ability
IFN-gamma production of established CTL lines (ELISA) (peptide-pulsed T2 cells [4]): potent IFN-gamma production

RSLLLSTKQL [SEQ ID NO: 62]
IFN-gamma production of peptide-induced CTLs (ELISPOT) ([1]; listed as IQGAP3-A24-10-1363): potent IFN-gamma production ability
IFN-gamma production of established CTL lines (ELISA) [2]: potent IFN-gamma production

ILVHaPHPPL (ILVHAPHPPL; not fully specified (residue 5); printed as ILVHaPHPPL) [SEQ ID NO: 148]
IFN-gamma production of peptide-induced CTLs (ELISPOT) (peptide-pulsed T2 cells [3]; listed as IQGAP3-A02-10-842): potent IFN-gamma production ability
IFN-gamma production of established CTL lines (ELISA) (peptide-pulsed T2 cells [4]): potent IFN-gamma production

KIGGILANEL [SEQ ID NO: 56]
IFN-gamma production of peptide-induced CTLs (ELISPOT) ([1]; listed as IQGAP3-A24-10-191): potent IFN-gamma production ability
IFN-gamma production of established CTL lines (ELISA) [2]: potent IFN-gamma production

QYEGVAVMKL [SEQ ID NO: 35]
IFN-gamma production of peptide-induced CTLs (ELISPOT) ([1]; listed as IQGAP3-A24-10-1600): potent IFN-gamma production ability
IFN-gamma production of established CTL lines (ELISA) [2]: potent IFN-gamma production

LLPAaGLDDV (LLPAAGLDDV; not fully specified (residue 5); printed as LLPAaGLDDV) [SEQ ID NO: 125]
IFN-gamma production of peptide-induced CTLs (ELISPOT) (peptide-pulsed T2 cells [3]; listed as IQGAP3-A02-10-548): potent IFN-gamma production ability
IFN-gamma production of established CTL lines (ELISA) (peptide-pulsed T2 cells [4]): potent IFN-gamma production
